Test: xn = mol fraction of the nth substance listed
Conditions: Fluid (supercritical or subcritical phases), Spherical resonator

N#N [nitrogen] + C
Conditions	speed of sound [m/s]
220 K, 14891 kPa, x1 = 0.2	470.66
220 K, 16024 kPa, x1 = 0.2	497.89
220 K, 16645 kPa, x1 = 0.1	562.65
220 K, 17031 kPa, x1 = 0.2	521.17
220 K, 18043 kPa, x1 = 0.1	596.39
220 K, 18088 kPa, x1 = 0.2	544.6
220 K, 19087 kPa, x1 = 0.2	565.86
220 K, 19556 kPa, x1 = 0.2	575.49
220 K, 19985 kPa, x1 = 0.1	639.27
220 K, 25037 kPa, x1 = 0.2	675.84
220 K, 30201 kPa, x1 = 0.2	753.84
250 K, 99.6 kPa, x1 = 0.2	387.32
250 K, 105 kPa, x1 = 0.2	387.33
250 K, 199.6 kPa, x1 = 0.1	398.92
250 K, 249.1 kPa, x1 = 0.2	386.69
250 K, 249.5 kPa, x1 = 0.2	386.7
250 K, 405.3 kPa, x1 = 0.5422	353.38
250 K, 498.3 kPa, x1 = 0.2	385.62
250 K, 499.1 kPa, x1 = 0.1	397.32
250 K, 499.1 kPa, x1 = 0.2	385.63
250 K, 596.4 kPa, x1 = 0.5422	353.08
250 K, 998.2 kPa, x1 = 0.2	383.53
250 K, 998.9 kPa, x1 = 0.2	383.54
250 K, 999.8 kPa, x1 = 0.1	394.71
250 K, 1001 kPa, x1 = 0.5422	352.48
250 K, 1955 kPa, x1 = 0.5422	351.35
250 K, 2002 kPa, x1 = 0.2	379.64
250 K, 2004 kPa, x1 = 0.1	389.75
250 K, 2005 kPa, x1 = 0.2	379.64
250 K, 2974 kPa, x1 = 0.1	385.4
250 K, 3002 kPa, x1 = 0.2	376.26
250 K, 3014 kPa, x1 = 0.2	376.24
250 K, 3805 kPa, x1 = 0.5422	350.46
250 K, 4021 kPa, x1 = 0.2	373.48
250 K, 4026 kPa, x1 = 0.2	373.48
250 K, 4027 kPa, x1 = 0.1	381.43
250 K, 4989 kPa, x1 = 0.2	371.62
250 K, 5030 kPa, x1 = 0.2	371.55
250 K, 5041 kPa, x1 = 0.1	378.44
250 K, 5536 kPa, x1 = 0.5422	351.48
250 K, 5903 kPa, x1 = 0.2	370.69
250 K, 6000 kPa, x1 = 0.2	370.66
250 K, 6066 kPa, x1 = 0.1	376.58
250 K, 7002 kPa, x1 = 0.2	370.93
250 K, 7089 kPa, x1 = 0.1	376.21
250 K, 7176 kPa, x1 = 0.5422	354.43
250 K, 8018 kPa, x1 = 0.2	372.66
250 K, 8117 kPa, x1 = 0.1	377.7
250 K, 8849 kPa, x1 = 0.5422	359.54
250 K, 8859 kPa, x1 = 0.5422	359.5
250 K, 9001 kPa, x1 = 0.2	375.95
250 K, 9155 kPa, x1 = 0.1	381.49
250 K, 10175 kPa, x1 = 0.2	382.17
250 K, 10204 kPa, x1 = 0.1	387.94
250 K, 11195 kPa, x1 = 0.2	389.7
250 K, 11238 kPa, x1 = 0.1	397.06
250 K, 12284 kPa, x1 = 0.1	408.99
250 K, 13078 kPa, x1 = 0.2	408.65
250 K, 13320 kPa, x1 = 0.1	423.21
250 K, 14003 kPa, x1 = 0.2	420.05
250 K, 14166 kPa, x1 = 0.1	436.28
250 K, 15044 kPa, x1 = 0.1	450.92
250 K, 15316 kPa, x1 = 0.2	438.11
250 K, 16059 kPa, x1 = 0.2	449.07
250 K, 16075 kPa, x1 = 0.1	469.1
250 K, 17054 kPa, x1 = 0.2	464.35
250 K, 17093 kPa, x1 = 0.1	487.71
250 K, 18084 kPa, x1 = 0.1	506.09
250 K, 18089 kPa, x1 = 0.2	480.72
250 K, 18990 kPa, x1 = 0.1	522.94
250 K, 19031 kPa, x1 = 0.2	495.86
250 K, 19850 kPa, x1 = 0.2	509.09
250 K, 19992 kPa, x1 = 0.1	541.47
250 K, 25516 kPa, x1 = 0.1	637.9
